Measurements: patent US20080009418A1, “Selective Inhibitors” (Alchemia LTD., priority 2004, published 2008)

Experiments:
[1] = target: T1, Human melanin-concentrating hormone (MCH1) (Homo sapiens, UniProt Q99705); assay: Radioligand binding, human melanin-concentrating hormone MCH1 membranes, FlashPlate, [125I]-S36057; settings: compound at 10 μM
T1 construct: purchased Perkin Elmer Biosignal
In short: (§1)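 Cloned human receptor membranes were coated onto FlashPlate wells and incubated with radioligand and compound (added from a 0.5 mM DMSO daughter plate) for 1 hour at room temperature in the dark. Scintillation counting gave percent inhibition, with DMSO defining total and reference ligand defining non-specific binding.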

[2] = target: T2, Human Melanocortin (MC4) (Homo sapiens, UniProt P32245); assay: Radioligand binding, human melanocortin MC4 membranes, FlashPlate, [125I]-NDP-αMSH; settings: compound at 10 μM, [125I]-NDP-αMSH
T2 construct: purchased Perkin Elmer Biosignal
T2 sequence (P32245 whole entry): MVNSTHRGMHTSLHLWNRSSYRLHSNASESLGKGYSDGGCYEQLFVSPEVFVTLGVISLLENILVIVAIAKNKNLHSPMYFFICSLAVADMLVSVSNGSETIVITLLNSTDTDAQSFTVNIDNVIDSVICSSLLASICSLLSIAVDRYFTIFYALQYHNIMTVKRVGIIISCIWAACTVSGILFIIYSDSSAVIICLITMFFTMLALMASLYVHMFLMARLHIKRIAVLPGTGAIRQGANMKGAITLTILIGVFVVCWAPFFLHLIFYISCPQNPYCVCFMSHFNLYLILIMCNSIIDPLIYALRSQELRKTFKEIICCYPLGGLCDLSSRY
In short: as §1

[3] = target: T3, Human κ-Opioid (KOP) (Homo sapiens, UniProt P41145); assay: Radioligand binding, human κ-opioid (KOP) membranes, filtration, [3H]-Diprenorphine; settings: compound at 10 μM, [3H]-Diprenorphine
T3 construct: purchased Perkin Elmer Biosignal
T3 sequence (P41145 whole entry): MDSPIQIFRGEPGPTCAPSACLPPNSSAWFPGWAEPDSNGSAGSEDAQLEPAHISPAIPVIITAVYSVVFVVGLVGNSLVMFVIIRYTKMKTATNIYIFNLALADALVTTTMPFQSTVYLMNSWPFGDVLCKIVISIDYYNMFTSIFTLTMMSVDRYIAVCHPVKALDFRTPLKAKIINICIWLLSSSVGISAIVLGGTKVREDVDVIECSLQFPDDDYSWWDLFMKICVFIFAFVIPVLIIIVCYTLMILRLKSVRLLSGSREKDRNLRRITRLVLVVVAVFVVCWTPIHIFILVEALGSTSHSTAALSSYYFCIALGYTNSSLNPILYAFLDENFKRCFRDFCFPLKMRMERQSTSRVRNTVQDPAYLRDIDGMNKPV
In short: (§2)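 Percent inhibition of radioligand binding measured on recombinant human membranes: NK1 with [125I]-Substance P, KOP with [3H]-Diprenorphine. Incubation 1 h at room temperature, then harvest onto 0.3% PEI-soaked filters, cold Tris-HCl pH 7.4 washes and scintillation counting; non-specific binding from reference ligand wells.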

[4] = target: T4, Human μ-opioid (MOP) (Homo sapiens, UniProt P35372); assay: Radioligand binding, human μ-opioid (MOP) membranes, FlashPlate, [3H]-Naloxone; settings: compound at 10 μM, [3H]-Naloxone
T4 construct: purchased Perkin Elmer Biosignal
T4 sequence (P35372 whole entry): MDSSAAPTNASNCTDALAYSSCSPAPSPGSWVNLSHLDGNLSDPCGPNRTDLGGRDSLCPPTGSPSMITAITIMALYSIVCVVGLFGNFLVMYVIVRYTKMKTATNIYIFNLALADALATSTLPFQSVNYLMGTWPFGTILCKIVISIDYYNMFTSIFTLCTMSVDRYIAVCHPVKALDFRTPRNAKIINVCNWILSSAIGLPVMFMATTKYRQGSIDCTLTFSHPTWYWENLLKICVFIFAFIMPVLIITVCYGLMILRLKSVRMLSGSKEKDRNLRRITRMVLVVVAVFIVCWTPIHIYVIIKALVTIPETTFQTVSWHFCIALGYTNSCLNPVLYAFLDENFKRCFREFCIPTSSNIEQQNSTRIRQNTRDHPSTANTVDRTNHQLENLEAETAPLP
In short: as §1

[5] = target: T5, Human neurokinin (NK1) (Homo sapiens, UniProt P25103); assay: Radioligand binding, human neurokinin NK1 membranes, filtration, [125I]-Substance P; settings: compound at 10 μM, [125I]-Substance P
T5 construct: purchased Perkin Elmer Biosignal
T5 sequence (P25103 whole entry): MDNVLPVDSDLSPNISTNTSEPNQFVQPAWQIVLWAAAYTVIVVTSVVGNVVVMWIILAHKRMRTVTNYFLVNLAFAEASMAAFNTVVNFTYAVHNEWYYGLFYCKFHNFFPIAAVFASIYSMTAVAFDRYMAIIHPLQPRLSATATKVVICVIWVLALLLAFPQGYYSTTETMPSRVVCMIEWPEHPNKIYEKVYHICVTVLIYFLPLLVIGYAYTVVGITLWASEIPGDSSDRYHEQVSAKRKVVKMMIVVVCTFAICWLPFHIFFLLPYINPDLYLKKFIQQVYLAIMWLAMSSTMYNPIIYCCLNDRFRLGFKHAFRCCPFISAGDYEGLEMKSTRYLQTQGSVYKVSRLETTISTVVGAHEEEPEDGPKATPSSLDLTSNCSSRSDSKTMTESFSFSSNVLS
In short: as §2

[6] = target: T6, Human Melanocortin (MC3) (Homo sapiens, UniProt P41968); assay: Radioligand binding, human melanocortin MC3 membranes, FlashPlate, [125I]-NDP-αMSH; settings: compound at 10 μM, [125I]-NDP-αMSH
T6 construct: purchased Perkin Elmer Biosignal
T6 sequence (P41968 whole entry): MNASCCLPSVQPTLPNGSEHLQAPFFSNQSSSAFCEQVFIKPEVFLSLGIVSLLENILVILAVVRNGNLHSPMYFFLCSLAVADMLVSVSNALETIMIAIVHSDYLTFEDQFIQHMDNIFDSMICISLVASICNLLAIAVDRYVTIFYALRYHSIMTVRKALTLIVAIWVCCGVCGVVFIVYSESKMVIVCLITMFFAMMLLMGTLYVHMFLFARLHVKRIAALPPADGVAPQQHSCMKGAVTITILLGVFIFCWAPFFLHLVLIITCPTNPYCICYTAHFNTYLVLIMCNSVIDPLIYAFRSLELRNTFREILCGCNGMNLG
In short: as §1

[7] = target: T7, Mouse urotensin (mUR2) (Mus musculus, UniProt Q8VIH9); assay: Radioligand binding, mouse urotensin mUR2 membranes, FlashPlate, [125I]-Urotensin II; settings: compound at 10 μM, [125I]-Urotensin II
T7 construct: purchased Perkin Elmer Biosignal
T7 sequence (Q8VIH9 1-385): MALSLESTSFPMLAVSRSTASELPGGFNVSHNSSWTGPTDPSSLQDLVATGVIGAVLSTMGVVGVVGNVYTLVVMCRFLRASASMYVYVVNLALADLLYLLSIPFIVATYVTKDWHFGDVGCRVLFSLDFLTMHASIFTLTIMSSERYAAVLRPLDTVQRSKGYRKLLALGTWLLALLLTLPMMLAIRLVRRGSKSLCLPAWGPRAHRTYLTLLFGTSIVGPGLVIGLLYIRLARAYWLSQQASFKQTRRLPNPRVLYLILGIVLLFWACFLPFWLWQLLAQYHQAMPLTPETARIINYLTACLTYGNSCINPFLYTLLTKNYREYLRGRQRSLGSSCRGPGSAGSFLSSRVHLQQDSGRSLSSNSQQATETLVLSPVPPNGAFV
In short: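 Cloned mouse urotensin (mUR2) receptor membranes from Perkin Elmer Biosignal were immobilized in FlashPlate microplates using a proprietary coating. Each well got 19.5 μl buffer, then 0.5 μl of DMSO, reference ligand, or compound. Adding 5 μl of [125I]-Urotensin II, diluted to 5× final concentration in binding buffer, started binding. Plates were sealed with TopSeal-A and incubated 1 hour at room temperature in the dark. Wells were counted for 30 seconds each on a TopCount after a 60-second delay, and percentage inhibition was calculated.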

[8] = target: T8, Human δ-opioid (DOP) (Homo sapiens, UniProt P41143); assay: Radioligand binding, human δ-opioid (DOP) membranes, FlashPlate, [3H]-Bremazocine; settings: compound at 10 μM, [3H]-Bremazocine
T8 construct: purchased Perkin Elmer Biosignal
T8 sequence (P41143 whole entry): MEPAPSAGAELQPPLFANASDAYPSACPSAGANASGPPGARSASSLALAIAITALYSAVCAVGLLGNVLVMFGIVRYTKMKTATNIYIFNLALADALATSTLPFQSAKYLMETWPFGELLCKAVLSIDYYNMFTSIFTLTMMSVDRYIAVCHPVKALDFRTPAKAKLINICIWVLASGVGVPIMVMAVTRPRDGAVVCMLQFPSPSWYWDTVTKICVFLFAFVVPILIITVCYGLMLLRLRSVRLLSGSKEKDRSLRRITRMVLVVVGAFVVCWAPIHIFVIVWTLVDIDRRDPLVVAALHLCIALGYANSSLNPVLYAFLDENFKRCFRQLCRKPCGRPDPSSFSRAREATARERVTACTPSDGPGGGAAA
In short: as §1

[9] = target: T9, Human opioid (ORL1) (Homo sapiens, UniProt P41146); assay: Radioligand binding, human opioid ORL1 membranes, FlashPlate, [125I]-Nociceptin; settings: compound at 10 μM, [125I]-Nociceptin
T9 construct: purchased Perkin Elmer Biosignal
T9 sequence (P41146 whole entry): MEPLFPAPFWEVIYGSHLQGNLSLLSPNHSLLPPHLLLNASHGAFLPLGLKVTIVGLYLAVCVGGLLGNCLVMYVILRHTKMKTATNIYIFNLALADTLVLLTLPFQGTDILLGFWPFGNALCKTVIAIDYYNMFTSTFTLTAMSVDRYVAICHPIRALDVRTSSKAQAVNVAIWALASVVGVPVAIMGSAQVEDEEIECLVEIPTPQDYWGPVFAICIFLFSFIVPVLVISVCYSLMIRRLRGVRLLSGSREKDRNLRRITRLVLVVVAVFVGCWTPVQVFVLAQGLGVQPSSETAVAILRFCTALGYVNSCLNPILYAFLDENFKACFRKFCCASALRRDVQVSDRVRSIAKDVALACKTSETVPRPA
In short: as §1

[10] = target: T10, Human neuropeptide Y (NPY-Y1) (Homo sapiens, UniProt P25929); assay: Radioligand binding, human neuropeptide Y NPY-Y1 membranes, FlashPlate, [125I]-PYY; settings: compound at 10 μM, [125I]-PYY
T10 construct: purchased Perkin Elmer Biosignal
T10 sequence (P25929 1-384): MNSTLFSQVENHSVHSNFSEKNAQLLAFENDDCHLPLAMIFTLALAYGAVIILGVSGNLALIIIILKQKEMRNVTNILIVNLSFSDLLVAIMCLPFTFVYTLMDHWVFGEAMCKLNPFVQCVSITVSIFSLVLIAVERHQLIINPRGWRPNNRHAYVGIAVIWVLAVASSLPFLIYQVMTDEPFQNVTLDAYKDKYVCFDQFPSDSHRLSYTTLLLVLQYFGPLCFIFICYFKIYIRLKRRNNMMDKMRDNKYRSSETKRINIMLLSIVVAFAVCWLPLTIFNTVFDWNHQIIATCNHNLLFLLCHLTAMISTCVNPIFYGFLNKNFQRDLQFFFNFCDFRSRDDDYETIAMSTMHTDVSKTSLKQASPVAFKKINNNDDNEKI
In short: as §1

[11] = target: T11, Human melanocortin (MC5) (Homo sapiens, UniProt P33032); assay: Radioligand binding, human melanocortin MC5 membranes, FlashPlate, [125I]-NDP-αMSH; settings: compound at 10 μM, [125I]-NDP-αMSH
T11 construct: purchased Perkin Elmer Biosignal
T11 sequence (P33032 whole entry): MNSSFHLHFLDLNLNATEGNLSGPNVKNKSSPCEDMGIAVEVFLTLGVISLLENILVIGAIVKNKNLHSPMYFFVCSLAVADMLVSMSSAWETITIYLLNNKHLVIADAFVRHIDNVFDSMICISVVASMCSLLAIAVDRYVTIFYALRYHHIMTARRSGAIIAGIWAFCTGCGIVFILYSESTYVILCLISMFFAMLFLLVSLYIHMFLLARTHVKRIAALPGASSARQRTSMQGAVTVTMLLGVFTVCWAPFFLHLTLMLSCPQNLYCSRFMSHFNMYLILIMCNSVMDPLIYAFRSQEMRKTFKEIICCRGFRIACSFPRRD
In short: as §1

T1 sequence (Q99705 whole entry): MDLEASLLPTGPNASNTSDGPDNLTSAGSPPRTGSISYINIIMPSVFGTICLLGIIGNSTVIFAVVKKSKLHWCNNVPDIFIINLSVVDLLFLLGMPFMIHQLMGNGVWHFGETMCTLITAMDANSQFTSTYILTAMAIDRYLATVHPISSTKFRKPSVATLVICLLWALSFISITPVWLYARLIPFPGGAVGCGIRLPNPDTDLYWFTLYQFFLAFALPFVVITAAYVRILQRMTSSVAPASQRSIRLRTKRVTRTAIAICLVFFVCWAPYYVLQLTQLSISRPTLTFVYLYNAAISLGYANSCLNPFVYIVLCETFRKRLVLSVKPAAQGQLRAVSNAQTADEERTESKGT

Which “A6: inhibition of radioligand binding, human melanin-concentrating hormone (MCH1)” value ([1]; [125I]-S36057) does the source give for `COCC1OC(OCCc2ccccc2)C(NC(=O)CNC(=N)N)C(OCc2ccc(-c3ccccc3)cc2)C1O` (stereo not drawn) [compound 549] here?
Its value is “− (“−” indicates less than 50% inhibition at 10 μM)”.

What about the “A4: inhibition of radioligand binding, human melanocortin (MC4)” value [2] of the same compound?
Its value is “− (“−” indicates less than 50% inhibition at 10 μM)”.

What about the “A2: inhibition of radioligand binding, human κ-opioid (KOP)” value [3] of the same compound?
The value was “− (“−” indicates less than 50% inhibition at 10 μM)”.

What about the “A7: inhibition of radioligand binding, human μ-opioid (MOP)” value [4] of the same compound?
Its value is “− (“−” indicates less than 50% inhibition at 10 μM)”.

And the “A8: inhibition of radioligand binding, human neurokinin (NK1)” value ([5]; 10 µM)?
The value was “− (“−” indicates less than 50% inhibition at 10 μM)”.

And the “A3: inhibition of radioligand binding, human melanocortin (MC3)” value [6]?
The value was “− (“−” indicates less than 50% inhibition at 10 μM)”.

And the “A11: inhibition of radioligand binding, mouse urotensin (mUR2)” value [7]?
Its value is “− (“−” indicates less than 50% inhibition at 10 μM)”.

And the “A1: inhibition of radioligand binding, human δ-opioid (DOP)” value [8]?
Its value is “− (“−” indicates less than 50% inhibition at 10 μM)”.

And the “A10: inhibition of radioligand binding, human opioid (ORL1)” value [9]?
Its value is “− (“−” indicates less than 50% inhibition at 10 μM)”.

What about the “A9: inhibition of radioligand binding, human neuropeptide Y (NPY-Y1)” value [10] of the same compound?
Its value is “− (“−” indicates less than 50% inhibition at 10 μM)”.

And the “A5: inhibition of radioligand binding, human melanocortin (MC5)” value [11]?
The value was “+ (“+” indicates greater than 50% inhibition at 10 μM)”.

With `CSC1OC(COCc2ccc(Cl)cc2)C(O)C(OCc2ccc(Cl)cc2)C1NC(=O)CCN` (stereo not drawn) [compound 271] as the compound, how does the “A6: inhibition of radioligand binding” value ([1]; [125I]-S36057, FlashPlate) read?
Its value is “− (“−” indicates less than 50% inhibition at 10 μM)”.

And the “A4: inhibition of radioligand binding” value ([2]; FlashPlate)?
Its value is “− (“−” indicates less than 50% inhibition at 10 μM)”.

And the “A2: inhibition of radioligand binding” value ([3]; filtration)?
Its value is “− (“−” indicates less than 50% inhibition at 10 μM)”.

What about the “A7: inhibition of radioligand binding” value ([4]; FlashPlate) of the same compound?
Its value is “− (“−” indicates less than 50% inhibition at 10 μM)”.

What about the “A8: inhibition of radioligand binding” value ([5]; filtration) of the same compound?
Its value is “+ (“+” indicates greater than 50% inhibition at 10 μM)”.

And the “A3: inhibition of radioligand binding” value ([6]; FlashPlate)?
Its value is “− (“−” indicates less than 50% inhibition at 10 μM)”.

And the “A11: inhibition of radioligand binding” value ([7]; FlashPlate)?
The value was “− (“−” indicates less than 50% inhibition at 10 μM)”.

What about the “A1: inhibition of radioligand binding” value ([8]; FlashPlate) of the same compound?
Its value is “− (“−” indicates less than 50% inhibition at 10 μM)”.

And the “A10: inhibition of radioligand binding” value ([9]; FlashPlate)?
Its value is “− (“−” indicates less than 50% inhibition at 10 μM)”.

What about the “A9: inhibition of radioligand binding” value ([10]; FlashPlate) of the same compound?
The value was “− (“−” indicates less than 50% inhibition at 10 μM)”.

What about the “A5: inhibition of radioligand binding” value ([11]; FlashPlate) of the same compound?
The value was “− (“−” indicates less than 50% inhibition at 10 μM)”.

For `CO[C@H]1[C@H](O)[C@@H](COCc2ccc(Cl)cc2)OC(OCCc2ccccc2)[C@@H]1NC(=O)CCNC(=N)N` (stereo partly drawn) [compound 120], which “A6 radioligand binding, percentage inhibition” value ([1]; [125I]-S36057) is on record?
Its value is “− (“−” indicates less than 50% inhibition at 10 μM)”.

What about the “A4 radioligand binding, percentage inhibition” value [2] of the same compound?
Its value is “+ (“+” indicates greater than 50% inhibition at 10 μM)”.

And the “A2 radioligand binding, percentage inhibition” value [3]?
Its value is “+ (“+” indicates greater than 50% inhibition at 10 μM)”.

What about the “A7 radioligand binding, percentage inhibition” value [4] of the same compound?
The value was “− (“−” indicates less than 50% inhibition at 10 μM)”.

What about the “A8 radioligand binding, percentage inhibition” value [5] of the same compound?
The value was “+ (“+” indicates greater than 50% inhibition at 10 μM)”.

What about the “A3 radioligand binding, percentage inhibition” value [6] of the same compound?
Its value is “− (“−” indicates less than 50% inhibition at 10 μM)”.

What about the “A11 radioligand binding, percentage inhibition” value [7] of the same compound?
Its value is “− (“−” indicates less than 50% inhibition at 10 μM)”.

What about the “A1 radioligand binding, percentage inhibition” value [8] of the same compound?
The value was “− (“−” indicates less than 50% inhibition at 10 μM)”.

And the “A10 radioligand binding, percentage inhibition” value [9]?
The value was “− (“−” indicates less than 50% inhibition at 10 μM)”.

And the “A9 radioligand binding, percentage inhibition” value [10]?
Its value is “− (“−” indicates less than 50% inhibition at 10 μM)”.

What about the “A5 radioligand binding, percentage inhibition” value [11] of the same compound?
Its value is “+ (“+” indicates greater than 50% inhibition at 10 μM)”.
